Test results: US20140050669A1, “USE OF RADIOGRAPHIC CONTRAST AGENTS FOR DETECTING DENTAL CARIES” (Creighton University, priority 2011, published 2014)

Columns and labels:
[1] = x-ray contrast imaging of identified dental caries before and after topical intra-oral composition; conditions: 9 M sodium iodide in distilled water
Description: A radiographic contrast imaging analysis using x-ray imaging was performed, comparing the imaging of identified dental caries before and after administration of a topical intra-oral composition comprising sodium iodide and distilled water according to the methods of the current invention. Specifically, an x-ray image of a tooth with identified dental caries was performed, without administering the topical intra-oral composition. This image was used as a control for determining the ability of typical x-ray images to detect dental caries in a patient. Subsequently, the same tooth was administered a composition comprising sodium iodide and distilled water, with the composition having a sodium iodide concentration of 9 molar. After administration of the composition to the tooth, x-ray images were obtained 20 seconds after administration and 16 minutes after administration. Further, an x-ray image of the tooth was taken 14 days after administration of the composition to determine if the composition continued to reside in the dental carious lesion. The images obtained are found in FIG. 1.

[2] = x-ray imaging of cavitated surface versus sound healthy surface; conditions: 9 M sodium iodide solution, x-ray 2 minutes after administration
Description: An experiment was performed to test the ability of the topical intra-oral compositions and methods to differentiate between cavitated surfaces (dental caries) and healthy, sound surfaces. Specifically, an x-ray image of a tooth with an identified cavitated surface on one side of the tooth and a sound surface on the other side was performed, without administering the topical intra-oral composition. This image was used as a control for determining the ability of the topical intra-oral compositions to selectively absorb into cavitated surfaces, rather than sound surfaces. Subsequently, the same tooth was administered a composition comprising sodium iodide and distilled water, with the composition having a sodium iodide concentration of 9 molar. After administration of the composition to the tooth, an x-ray image was obtained 2 minutes after administration. The results are illustrated in FIG. 2.

[3] = x-ray imaging of cavitated lesion versus non-cavitated lesion; conditions: 9 M sodium iodide solution, x-ray 3 minutes after administration
Description: An experiment was performed to test the ability of the topical intra-oral compositions and methods to differentiate between cavitated surfaces (a cavity) requiring treatment and non-cavitated lesions not requiring treatment. Specifically, an x-ray image of a tooth with an identified cavitated surface on the right side of the tooth and a non-cavitated lesion on the other side was performed, without administering the topical intra-oral composition. This image was used as a control for determining the ability of the topical intra-oral compositions to selectively absorb into cavitated lesions, rather than non-cavitated lesions. Subsequently, the same tooth was administered a composition comprising sodium iodide and distilled water, with the composition having a sodium iodide concentration of 9 molar. After administration of the composition to the tooth, an x-ray image was obtained 3 minutes after administration. The results are illustrated in FIG. 3.

[4] = comparison of contrast agents applied in turn to the same tooth cavity, radiographic analysis
Description: A 9M solution of sodium iodide (an ionic contrast agent) and a 76% solution of iopamidol (a non-ionic contrast agent) were administered. Each compound was applied in turn under identical conditions to the same tooth cavity and the tooth was radiographically analyzed as discussed above. After application and testing of each compound, the contrast was washed out from the tooth, and the tooth was tested radiographically to ensure there was no contrast remaining.
A barium sulfate solution comprising 1 gram of barium sulfate in 0.5 ml distilled water was administered. The compound was applied, and the tooth was analyzed and compared to other contrast agents and to the control treated tooth as discussed in Example 4. After application and testing of each compound, the contrast was washed out from the tooth and the tooth was tested radiographically to ensure there was no contrast remaining.

[5] = barium sulfate 96% w/w, radiograph 15 seconds after application
From the text: The radiograph was taken 15 seconds after barium sulfate (96% w/w) was applied.

[I-].[Na+] [sodium iodide]
radiographic image of dental caries versus control image ([1]; x-ray 20 seconds after administration): enhanced radiographic image of dental caries
radiographic image of dental caries versus control image ([1]; x-ray 16 minutes after administration): enhanced radiographic image of dental caries
x-ray appearance of composition in the carious lesion ([1]; x-ray 14 days after administration): altered x-ray appearance
radiographic image of dental caries (cavitated surface) ([2]; cavitated surface): enhanced radiographic image of dental caries
effect on imaging of sound tooth surfaces ([2]; sound surface): does not affect the imaging of sound tooth surfaces
radiographic image of cavitated lesion (cavity) ([3]; cavitated lesion): enhanced radiographic image of a cavitated lesion
effect on imaging of non-cavitated lesions ([3]; non-cavitated lesion): does not affect the imaging of non-cavitated lesions
radiographic contrast enhancement of tooth cavity ([4]; 9M solution of sodium iodide): produced radiographic contrast enhancement revealing tooth cavitation

C[C@H](O)C(=O)Nc1c(I)c(C(=O)NC(CO)CO)c(I)c(C(=O)NC(CO)CO)c1I [iopamidol]
radiographic contrast enhancement of tooth cavity ([4]; 76% solution of iopamidol): produced radiographic contrast enhancement revealing tooth cavitation

O=S(=O)([O-])[O-].[Ba+2] [barium sulfate]
radiographic contrast enhancement of tooth cavity ([4]; 1 gram of barium sulfate in 0.5 ml distilled water): produced radiographic contrast enhancement revealing tooth cavitation
radiographic image of shallow cavity [5]: image showing a shallow cavity
